Data published in ChEMBL document CHEMBL1140592, “Identification of novel, selective and potent Chk2 inhibitors” (Bioorg Med Chem Lett, 2007).

Target: Serine/threonine-protein kinase Chk2 (Homo sapiens, UniProt O96017)
Assay: Inhibition of Chk2 kinase

Serine/threonine-protein kinase Chk2, sequence (O96017 whole entry): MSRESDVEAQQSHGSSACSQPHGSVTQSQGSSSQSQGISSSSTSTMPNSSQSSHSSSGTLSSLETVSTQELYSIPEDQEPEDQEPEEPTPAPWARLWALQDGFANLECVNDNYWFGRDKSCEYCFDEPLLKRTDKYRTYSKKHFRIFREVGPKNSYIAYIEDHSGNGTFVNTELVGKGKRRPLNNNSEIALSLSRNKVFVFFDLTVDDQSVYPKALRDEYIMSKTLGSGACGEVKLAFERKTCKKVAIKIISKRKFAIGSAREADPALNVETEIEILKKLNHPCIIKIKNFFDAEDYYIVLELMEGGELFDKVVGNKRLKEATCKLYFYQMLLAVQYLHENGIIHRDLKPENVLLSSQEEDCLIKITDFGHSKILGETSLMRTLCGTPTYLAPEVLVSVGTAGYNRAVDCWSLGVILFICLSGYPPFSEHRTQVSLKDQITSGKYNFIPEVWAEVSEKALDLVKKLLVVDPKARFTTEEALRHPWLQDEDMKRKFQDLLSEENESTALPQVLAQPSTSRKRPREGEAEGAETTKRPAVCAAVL

SMILES | IC50
N=C(NCc1cccc2ccccc12)c1c(O)nsc1Nc1ccc(Nc2ccc(Br)cc2)cc1 | 460 nM
CC(C)NC(=N)c1c(O)nsc1Nc1ccc(Cc2ccccc2)cc1 | 8000 nM
N=C(NCC1CCCCC1)c1c(O)nsc1Nc1ccc(C(=O)c2ccccc2)cc1 | 5000 nM
CC(C)NC(=N)c1c(O)nsc1Nc1ccc(C2CCCCC2)cc1 | 19000 nM
CC(C)NC(=N)c1c(O)nsc1Nc1ccc(Nc2ccc(Br)cc2)cc1 | 87 nM
CC(CO)NC(=N)c1c(O)nsc1Nc1ccc(Nc2ccc(Br)cc2)cc1 (stereo not given) | 140 nM
N=C(NCCCCO)c1c(O)nsc1Nc1ccc(Nc2ccc(Br)cc2)cc1 | 310 nM
NC(=NCC1CCCCC1)c1c(Nc2ccc(-n3cccn3)cc2)s[nH]c1=O | 40000 nM
CC(CO)NC(=N)c1c(O)nsc1Nc1ccc(-n2cccn2)cc1 (stereo not given) | > 40000 nM
N=C(NCC1CCCCC1)c1c(O)nsc1Nc1ccc(Cc2ccccc2)cc1 | 37000 nM
N=C(NCC1CCCCC1)c1c(O)nsc1Nc1ccc(Sc2ccccc2)cc1 | 19000 nM
CC(C)NC(=N)c1c(O)nsc1Nc1ccc(Nc2ccccc2)cc1 | 420 nM
CC(CO)NC(=N)c1c(O)nsc1Nc1ccc(Nc2ccccc2)cc1 (stereo not given) | 460 nM
N=C(NCCO)c1c(O)nsc1Nc1ccc(Nc2ccccc2)cc1 | 1000 nM
N=C(NCC1CCCCC1)c1c(O)nsc1Nc1ccc(Nc2ccccc2)cc1 | 1800 nM
N=C(NCCCCO)c1c(O)nsc1Nc1ccc(Nc2ccccc2)cc1 | 1200 nM
N=C(NCCO)c1c(O)nsc1Nc1ccc(Nc2ccc(Br)cc2)cc1 | 220 nM
CC(C)NC(=N)c1c(O)nsc1Nc1ccc(/N=N/c2ccccc2)cc1 | 11000 nM
CC(C)NC(=N)c1c(O)nsc1Nc1ccc(Oc2ccccc2)cc1 | 2300 nM
CC(C)NC(=N)c1c(O)nsc1Nc1ccc(S(=O)(=O)c2ccccc2)cc1 | > 40000 nM
N=C(NCC1CCCCC1)c1c(O)nsc1Nc1ccc(/N=N/c2ccccc2)cc1 | 11000 nM
N=C(NCC1CCCCC1)c1c(O)nsc1Nc1ccc(Nc2ccc(Br)cc2)cc1 | 300 nM
N=C(NCC(O)CO)c1c(O)nsc1Nc1ccc(Nc2ccc(Br)cc2)cc1 (stereo not given) | 470 nM
N=C(NCC(O)CO)c1c(O)nsc1Nc1ccc(Nc2ccccc2)cc1 (stereo not given) | 900 nM
CCC[C@H]1CC[C@H](c2ccc(Nc3s[nH]c(=O)c3C(N)=NCC(O)CO)cc2)CC1 (stereo not given in full) | 17000 nM
